# According to patent publication US10828317B2, “Method of treating bacterial infections” (priority 2016, dated 2020):
# Where two headings read alike, the source gives them in different places.
# Key:
# [1] = system: A. baumannii EN016; experiment: MIC, WT; type: cell-based, Acinetobacter baumannii; details: Acinetobacter baumannii, read-out: MIC
# [2] = system: K. pneumoniae EN0244; experiment: MIC, colistinR; type: cell-based; details: Klebsiella pneumoniae, read-out: MIC
# [3] = system: P. mirabilis ST19 EN0445; experiment: MIC; type: cell-based, Proteus mirabilis; details: Proteus mirabilis, read-out: MIC
# [4] = system: S. sonnei APV00908; experiment: MIC and antibiogram; type: cell-based; details: Shigella sonnei, Table 22A
# [5] = system: E. coli EN0235; experiment: microbe, parasite or virus in culture; type: cell-based; details: Escherichia coli
# [6] = system: A. pittii or A. nosocomialis EN0180; experiment: MIC; type: cell-based, Acinetobacter pittii or nosocomialis; details: read-out: MIC
# [7] = system: P. aeruginosa EN004; experiment: MIC, WT (EN004 = EN0004); type: cell-based, Pseudomonas aeruginosa
# [8] = system: E. coli EN001; experiment: MIC, WT (EN001 = EN0001, ATCC 25922); type: cell-based, Escherichia coli
# [9] = system: K. pneumoniae EN0463; experiment: MIC; type: cell-based, Klebsiella pneumoniae; details: Klebsiella pneumoniae, read-out: MIC
# [10] = system: P. aeruginosa EN0459; experiment: MIC; type: cell-based, Pseudomonas aeruginosa; details: Pseudomonas aeruginosa, read-out: MIC
# [11] = system: E. coli EN0137; experiment: MIC, ESBL (CTX-M-15); type: cell-based; details: Escherichia coli, read-out: MIC
# [12] = system: K. pneumoniae EN006; experiment: MIC, WT (EN006 = EN0006, ATCC 13883); type: cell-based, Klebsiella pneumoniae
# [13] = system: M. luteus EN0455; experiment: MIC; type: cell-based, Micrococcus luteus; details: Micrococcus luteus, read-out: MIC
# [14] = system: E. coli EN002; experiment: MIC, DtoIC; type: cell-based, Escherichia coli; details: Escherichia coli, read-out: MIC
# [15] = system: S. marescens EN0454; experiment: MIC; type: cell-based, Serratia marescens; details: Serratia, read-out: MIC
# [16] = combination AZT+trimethoprim+uridine, Table 17B
# [17] = combination FdUrd+trimethoprim+uridine, Table 19
# [18] = combination didanosine+trimethoprim+uridine, Table 20
smiles,measurement,setting,value
"COc1cc(Cc2cnc(N)nc2N)cc(OC)c1OC [Trimethoprim, trimethoprim]",MIC,"[1]; EN016, combination AZT+trimethoprim+uridine, Table 6",> 4 µg/mL
same,MIC,"[1]; EN016, combination FdUrd+trimethoprim+uridine, Table 8",8 µg/mL
same,MIC,"[1]; EN016, combination didanosine+trimethoprim+uridine, Table 10",> 8 µg/mL
same,MIC,"[2]; EN0244, combination AZT+trimethoprim+uridine, Table 17B",0.5 µg/mL
same,MIC,"[2]; EN0244, combination FdUrd+trimethoprim+uridine, Table 19",> 8 µg/mL
same,MIC,"[2]; EN0244, combination didanosine+trimethoprim+uridine, Table 20",> 8 µg/mL
same,MIC,"[3]; ST19EN0445, Combination 1 AZT+trimethoprim+uridine, Table 16",1 µg/mL
same,MIC,"[3]; ST19EN0445, Combination 2 AZT+trimethoprim+uridine+thymidine, Table 16",> 4 µg/mL
same,MIC,"[3]; ST19EN0445, combination AZT+trimethoprim+uridine, Table 6",> 4 µg/mL
same,MIC,"[3]; ST19EN0445, combination FdUrd+trimethoprim+uridine, Table 8",1 µg/mL
same,MIC,"[3]; ST19EN0445, combination didanosine+trimethoprim+uridine, Table 10",2 µg/mL
same,MIC,"[4]; APV00908, combination AZT+trimethoprim+uridine",0.03 µg/mL
same,MIC,"[4]; APV00908, combination FdUrd+trimethoprim+uridine",> 8 µg/mL
same,MIC,"[5]; EN0235, combination FdUrd+trimethoprim+uridine, Table 19",0.125 µg/mL
same,MIC,"[5]; EN0235, combination didanosine+trimethoprim+uridine, Table 20",0.25 µg/mL
same,MIC,"[6]; Combination 1 AZT+trimethoprim+uridine, Table 16",> 4 µg/mL
same,MIC,"[6]; Combination 2 AZT+trimethoprim+uridine+thymidine, Table 16",> 4 µg/mL
same,MIC,"[6]; combination AZT+trimethoprim+uridine, Table 6",> 4 µg/mL
same,MIC,"[6]; combination FdUrd+trimethoprim+uridine, Table 8",8 µg/mL
same,MIC,"[6]; combination didanosine+trimethoprim+uridine, Table 10",> 8 µg/mL
same,MIC,"[7]; Pseudomonas aeruginosa, EN004, Combination 1 AZT+trimethoprim+uridine, Table 16, read-out: MIC",> 4 µg/mL
same,MIC,"[7]; Pseudomonas aeruginosa, EN004, Combination 2 AZT+trimethoprim+uridine+thymidine, Table 16, read-out: MIC",> 4 µg/mL
same,MIC,"[7]; Pseudomonas aeruginosa, EN004, combination AZT+trimethoprim+uridine, Table 6, read-out: MIC",> 4 µg/mL
same,MIC,"[7]; Pseudomonas aeruginosa, EN004, combination FdUrd+trimethoprim+uridine, Table 8, read-out: MIC",> 8 µg/mL
same,MIC,"[7]; Pseudomonas aeruginosa, EN004, combination didanosine+trimethoprim+uridine, Table 10, read-out: MIC",> 8 µg/mL
same,MIC,[7]; [16],>4 µg/mL
same,MIC,[7]; [17],>8 µg/mL
same,MIC,[7]; [18],>8 µg/mL
same,MIC,"[8]; Escherichia coli, EN001, Combination 1 AZT+trimethoprim+uridine, Table 16, read-out: MIC",0.064 µg/mL
same,MIC,"[8]; Escherichia coli, EN001, combination FdUrd+trimethoprim+uridine, Table 8, read-out: MIC",0.25 µg/mL
same,MIC,"[8]; Escherichia coli, EN001, combination didanosine+trimethoprim+uridine, Table 10, read-out: MIC",0.25 µg/mL
same,MIC,[8]; [17],0.5 µg/mL
same,MIC,[8]; [18],0.5 µg/mL
same,MIC,"[9]; EN0463, combination AZT+trimethoprim+uridine, Table 6",0.06 µg/mL
same,MIC,"[9]; EN0463, combination FdUrd+trimethoprim+uridine, Table 8",0.5 µg/mL
same,MIC,"[9]; EN0463, combination didanosine+trimethoprim+uridine, Table 10",0.5 µg/mL
same,MIC,"[10]; EN0459, Combination 1 AZT+trimethoprim+uridine, Table 16",> 4 µg/mL
same,MIC,"[10]; EN0459, Combination 2 AZT+trimethoprim+uridine+thymidine, Table 16",> 4 µg/mL
same,MIC,"[10]; EN0459, combination AZT+trimethoprim+uridine, Table 6",> 4 µg/mL
same,MIC,"[10]; EN0459, combination FdUrd+trimethoprim+uridine, Table 8",> 8 µg/mL
same,MIC,"[10]; EN0459, combination didanosine+trimethoprim+uridine, Table 10",> 8 µg/mL
same,MIC,"[11]; EN0137, combination FdUrd+trimethoprim+uridine, Table 19",> 8 µg/mL
same,MIC,"[11]; EN0137, combination didanosine+trimethoprim+uridine, Table 20",> 8 µg/mL
same,MIC,"[12]; Klebsiella pneumoniae, EN006, Combination 2 AZT+trimethoprim+uridine+thymidine, Table 16, read-out: MIC",0.5 µg/mL
same,MIC,"[12]; Klebsiella pneumoniae, EN006, combination AZT+trimethoprim+uridine, Table 6, read-out: MIC",0.06 µg/mL
same,MIC,"[12]; Klebsiella pneumoniae, EN006, combination FdUrd+trimethoprim+uridine, Table 8, read-out: MIC",1 µg/mL
same,MIC,"[12]; Klebsiella pneumoniae, EN006, combination didanosine+trimethoprim+uridine, Table 10, read-out: MIC",1 µg/mL
same,MIC,[12]; [16],0.25 µg/mL
same,MIC,[12]; [17],1 µg/mL
same,MIC,[12]; [18],1 µg/mL
same,MIC,"[13]; EN0455, Combination 1 AZT+trimethoprim+uridine, Table 16",2 µg/mL
same,MIC,"[13]; EN0455, Combination 2 AZT+trimethoprim+uridine+thymidine, Table 16",> 4 µg/mL
same,MIC,"[13]; EN0455, combination AZT+trimethoprim+uridine, Table 6",2 µg/mL
same,MIC,"[13]; EN0455, combination FdUrd+trimethoprim+uridine, Table 8",4 µg/mL
same,MIC,"[13]; EN0455, combination didanosine+trimethoprim+uridine, Table 10",4 µg/mL
same,MIC,"[14]; EN002, Combination 1 AZT+trimethoprim+uridine, Table 16",0.016 µg/mL
same,MIC,"[14]; EN002, combination AZT+trimethoprim+uridine, Table 6",0.016 µg/mL
same,MIC,"[14]; EN002, combination FdUrd+trimethoprim+uridine, Table 8",0.064 µg/mL
same,MIC,"[14]; EN002, combination didanosine+trimethoprim+uridine, Table 10",0.064 µg/mL
same,MIC,"[15]; EN0454, Combination 1 AZT+trimethoprim+uridine, Table 16",> 4 µg/mL
same,MIC,"[15]; EN0454, Combination 2 AZT+trimethoprim+uridine+thymidine, Table 16",> 4 µg/mL
same,MIC,"[15]; EN0454, combination AZT+trimethoprim+uridine, Table 6",1 µg/mL
same,MIC,"[15]; EN0454, combination FdUrd+trimethoprim+uridine, Table 8",> 8 µg/mL
same,MIC,"[15]; EN0454, combination didanosine+trimethoprim+uridine, Table 10",> 8 µg/mL
